Assay results from ChEMBL document CHEMBL1146741, “Cycloalkyl[b][1,4]benzodiazepinoindoles are agonists at the human 5-HT2C receptor” (Bioorg Med Chem Lett, 2004).

Assays:
[1] = target: Sodium-dependent serotonin transporter (Rattus norvegicus) (UniProt P31652); experiment: Percent binding affinity against serotonin transporter; conditions: concentration not given here
[2] = target: 5-hydroxytryptamine receptor 2B (Homo sapiens) (UniProt P41595); experiment: Binding affinity against 5-hydroxytryptamine 2B receptor

Sequence of Sodium-dependent serotonin transporter (Rattus norvegicus) (P31652 whole entry, looked up): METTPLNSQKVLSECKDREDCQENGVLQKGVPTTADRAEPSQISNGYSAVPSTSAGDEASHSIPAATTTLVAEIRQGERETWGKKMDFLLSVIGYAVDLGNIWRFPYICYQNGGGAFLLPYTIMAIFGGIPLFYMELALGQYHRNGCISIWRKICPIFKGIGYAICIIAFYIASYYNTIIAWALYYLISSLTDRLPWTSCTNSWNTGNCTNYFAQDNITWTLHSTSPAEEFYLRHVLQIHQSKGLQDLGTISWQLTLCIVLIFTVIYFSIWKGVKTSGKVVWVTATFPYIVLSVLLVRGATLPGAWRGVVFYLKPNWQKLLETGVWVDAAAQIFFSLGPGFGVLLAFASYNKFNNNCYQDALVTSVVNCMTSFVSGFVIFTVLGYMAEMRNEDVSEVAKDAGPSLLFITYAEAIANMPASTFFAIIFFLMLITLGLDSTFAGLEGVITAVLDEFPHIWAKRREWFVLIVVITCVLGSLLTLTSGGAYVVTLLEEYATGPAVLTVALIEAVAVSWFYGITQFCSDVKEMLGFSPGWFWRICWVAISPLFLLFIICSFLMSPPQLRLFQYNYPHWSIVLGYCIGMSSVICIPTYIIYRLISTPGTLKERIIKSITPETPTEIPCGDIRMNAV

c1cc2c3c(c1)c1c(n3CCNC2)CCCCCC1
inhibition [1]: 14% | Ki [2]: > 5 µM
